From patent US9302999B2, “Substituted triazoles as herbicides” (E. I. DU PONT DE NEMOURS AND COMPANY, priority 2012, dated 2016)
Read-outs that look alike come from different tables or passages of the source.

Legend:
Type in all cases: in vivo
[1] = test system: pigweed (Amaranthus retroflexus); assay: Test A pre-/postemergence: pigweed; conditions: for pest or weed control at 125 g/ha / pest or weed control at 500 g/ha: Amaranthus retroflexus, 240 h
How it was run: (§1)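 Injury is scored visually on a scale where 0 means no effect and 100 complete control, comparing treated with untreated plants after approximately ten greenhouse days. Both preemergence and postemergence applications are made at the same time.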

[2] = test system: ryegrass, Italian (Italian ryegrass, Lolium multiflorum); assay: Test C pre-/postemergence: ryegrass, Italian
How it was run: (§2)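 Preemergence on seeds in loam/sand, postemergence on 2–18 cm (1–4-leaf) plants in peat-based medium; compounds in non-phytotoxic solvent with surfactant. After 13–15 days in greenhouse, visual rating versus controls, 0 (no effect) to 100 (complete control).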

[3] = test system: wheat (Triticum aestivum); assay: Test A pre-/postemergence: wheat; conditions: for plant injury at 125 g/ha / plant injury at 500 g/ha: Triticum aestivum, 240 h
How it was run: as §1

[4] = test system: barnyardgrass (Echinochloa crus-galli); assay: Test B flooded paddy: barnyardgrass; conditions: Flood, applied to paddy water at 2-leaf stage, visually evaluated after 13 to 15 days
How it was run: (§3)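 Visual ratings on a 0–100 scale, where 0 means no effect and 100 means complete control, were assigned by comparison with controls 13 to 15 days after treatment. Compounds went into paddy water over 2-leaf plants flooded to 3 cm.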

[5] = test system: winter wheat (Triticum aestivum); assay: Test C pre-/postemergence: winter wheat
How it was run: as §2

[6] = test system: sedge, umbrella (small-flower umbrella sedge Cyperus difformis); assay: Test B flooded paddy: sedge, umbrella; conditions: Flood, applied to paddy water at 2-leaf stage, visually evaluated after 13 to 15 days
How it was run: as §3

rice (Oryza sativa) = assay: Test B flooded paddy: rice; conditions: Flood, applied to paddy water at 2-leaf stage, visually evaluated after 13 to 15 days
How it was run: as §3

[7] = test system: barnyardgrass (Echinochloa crus-galli); assay: Test A pre-/postemergence: barnyardgrass; conditions: for pest or weed control at 125 g/ha / pest or weed control at 500 g/ha: Echinochloa crus-galli, 240 h
How it was run: as §1

soybean (Glycine max) = assay: Test C pre-/postemergence: soybean
How it was run: as §2

[8] = test system: lambsquarters (Chenopodium album); assay: Test C pre-/postemergence: lambsquarters
How it was run: as §2

[9] = test system: pigweed (Amaranthus retroflexus); assay: Test C pre-/postemergence: pigweed
How it was run: as §2

[10] = Postemergence, 125 g ai/ha, 0 to 100 scale, 0 is no effect, 100 is complete control
[11] = Postemergence, 500 g ai/ha, visual rating on 0 to 100 scale (0 no effect, 100 complete control), approximately ten days
[12] = Preemergence, 125 g ai/ha, 0 to 100 scale where 0 is no effect and 100 is complete control
[13] = Preemergence, 500 g ai/ha, 0 to 100 scale (0 no effect, 100 complete control)
[14] = Postemergence, 31 g ai/ha, scale 0 to 100 (0 no effect, 100 complete control)
[15] = Postemergence, 62 g ai/ha, scale 0 to 100 (0 no effect, 100 complete control)
[16] = Postemergence, 125 g ai/ha, scale 0 to 100, 0 no effect, 100 complete control
[17] = Postemergence, 250 g ai/ha, scale 0 to 100
[18] = Preemergence, 31 g ai/ha, scale of 0 to 100, 0 is no effect, 100 is complete control
[19] = Preemergence, 62 g ai/ha, scale of 0 to 100, 0 is no effect, 100 is complete control
[20] = Preemergence, 125 g ai/ha, scale 0 to 100, 0 no effect, 100 complete control
[21] = Preemergence, 250 g ai/ha, scale 0 to 100, 0 no effect, 100 complete control
[22] = Postemergence, 500 g ai/ha, 0 to 100 scale, 0 is no effect, 100 is complete control

Cc1nn(-c2ccc(C(F)(F)F)c(F)c2)nc1Oc1ccnc(C(F)(F)F)c1 [Compound 148]
Plant response rating, Pigweed [1, 10]: 100 | Pigweed plant response rating [1, 11]: 100 | Plant response rating, Pigweed [1, 12]: 100 | Plant response rating, Pigweed [1, 13]: 100 | Plant response rating, Ryegrass, Italian [2, 14]: 10 | Plant response rating, Ryegrass, Italian [2, 15]: 35 | Plant response rating, Ryegrass, Italian [2, 16]: 60 | Plant response rating, Ryegrass, Italian [2, 17]: 65 | Plant response rating, Ryegrass, Italian [2, 18]: 5 | Plant response rating, Ryegrass, Italian [2, 19]: 60 | Plant response rating, Ryegrass, Italian [2, 20]: 60 | Plant response rating, Ryegrass, Italian [2, 21]: 90 | Plant response rating, Wheat [3, 10]: 20 | Wheat plant response rating [3, 11]: 40 | Plant response rating, Wheat [3, 12]: 30 | Plant response rating, Wheat [3, 13]: 50 | Plant response rating, Barnyardgrass (0 to 100 scale, 0 is no effect, 100 is complete control) ([4]; 250 g ai/ha): 65 | Plant response rating, Wheat [5, 14]: 20 | Plant response rating, Wheat [5, 15]: 25 | Plant response rating, Wheat [5, 16]: 40 | Plant response rating, Wheat [5, 17]: 40 | Plant response rating, Wheat [5, 19]: 5 | Plant response rating, Wheat [5, 20]: 30 | Plant response rating, Wheat [5, 21]: 35 | Plant response rating, Sedge, Umbrella (0 to 100 scale, 0 is no effect, 100 is complete control) ([6]; 250 g ai/ha): 85 | Plant response rating, Rice (0 to 100 scale, 0 is no effect, 100 is complete control) (rice (Oryza sativa); 250 g ai/ha): 45 | Barnyardgrass plant response rating [7, 10]: 80 | Barnyardgrass plant response rating [7, 11]: 90 | Plant response rating, Barnyardgrass [7, 12]: 90 | Plant response rating, Barnyardgrass [7, 13]: 100 | Plant response rating, Soybean (soybean (Glycine max); [14]): 45 | Plant response rating, Soybean (soybean (Glycine max); [15]): 45 | Plant response rating, Soybean (soybean (Glycine max); [16]): 80 | Plant response rating, Soybean (soybean (Glycine max); [17]): 90 | Plant response rating, Soybean (soybean (Glycine max); [18]): 5 | Plant response rating, Soybean (soybean (Glycine max); [19]): 10 | Plant response rating, Soybean (soybean (Glycine max); [20]): 20 | Plant response rating, Soybean (soybean (Glycine max); [21]): 30 | Plant response rating, Lambsquarters [8, 14]: 98 | Plant response rating, Lambsquarters [8, 15]: 98 | Plant response rating, Lambsquarters [8, 16]: 98 | Plant response rating, Lambsquarters [8, 17]: 98 | Plant response rating, Lambsquarters [8, 18]: 15 | Plant response rating, Lambsquarters [8, 19]: 25 | Plant response rating, Lambsquarters [8, 20]: 65 | Plant response rating, Lambsquarters [8, 21]: 85 | Plant response rating, Pigweed [9, 14]: 65 | Plant response rating, Pigweed [9, 15]: 98 | Plant response rating, Pigweed [9, 16]: 98 | Plant response rating, Pigweed [9, 17]: 98 | Plant response rating, Pigweed [9, 18]: 100 | Plant response rating, Pigweed [9, 19]: 100 | Plant response rating, Pigweed [9, 20]: 100 | Plant response rating, Pigweed [9, 21]: 100

Cc1nn(-c2ccc(F)cc2F)nc1Cc1ccnc(C(F)(F)F)c1 [Compound 54, 4-[[2-(2,4-difluorophenyl)-5-methyl-2H-1,2,3-triazol-4-yl]methyl]-2-(trifluoromethyl)pyridine]
pest or weed control at 125 g/ha ([1]; post-emergence, Postemergence, 125 g ai/ha, 0 to 100 scale, 0 is no effect, 100 is complete control, read-out: Pigweed plant response rating): 100% | pest or weed control at 500 g/ha ([1]; post-emergence, Postemergence, 500 g ai/ha, visual rating on 0 to 100 scale (0 no effect, 100 complete control), approximately ten days, read-out: Pigweed plant response rating): 100% | pest or weed control at 125 g/ha ([1]; pre-emergence, Preemergence, 125 g ai/ha, 0 to 100 scale (0 no effect, 100 complete control), read-out: Plant response rating, Pigweed): 100% | pest or weed control at 500 g/ha ([1]; pre-emergence, Preemergence, 500 g ai/ha, 0 to 100 scale, 0 is no effect, 100 is complete control, read-out: Plant response rating, Pigweed): 100% | plant injury at 125 g/ha ([3]; post-emergence, Postemergence, 125 g ai/ha, 0 to 100 scale, 0 is no effect, 100 is complete control, read-out: Wheat plant response rating): 20% | plant injury at 500 g/ha ([3]; post-emergence, Postemergence, 500 g ai/ha, visual rating on 0 to 100 scale (0 no effect, 100 complete control), approximately ten days, read-out: Wheat plant response rating): 30% | plant injury at 125 g/ha ([3]; pre-emergence, Preemergence, 125 g ai/ha, 0 to 100 scale (0 no effect, 100 complete control), read-out: Plant response rating, Wheat): 10% | plant injury at 500 g/ha ([3]; pre-emergence, Preemergence, 500 g ai/ha, 0 to 100 scale, 0 is no effect, 100 is complete control, read-out: Plant response rating, Wheat): 30% | Plant response rating, Barnyardgrass (0 to 100 scale, 0 is no effect, 100 is complete control) ([4]; 250 g ai/ha): 30 | Plant response rating, Sedge, Umbrella (0 to 100 scale, 0 is no effect, 100 is complete control) ([6]; 250 g ai/ha): 85 | Plant response rating, Rice (0 to 100 scale, 0 is no effect, 100 is complete control) (rice (Oryza sativa); 250 g ai/ha): 30 | pest or weed control at 125 g/ha ([7]; post-emergence, Postemergence, 125 g ai/ha, 0 to 100 scale, 0 is no effect, 100 is complete control, read-out: Barnyardgrass plant response rating): 70% | pest or weed control at 500 g/ha ([7]; post-emergence, Postemergence, 500 g ai/ha, visual rating on 0 to 100 scale (0 no effect, 100 complete control), approximately ten days, read-out: Barnyardgrass plant response rating): 90% | pest or weed control at 125 g/ha ([7]; pre-emergence, Preemergence, 125 g ai/ha, 0 to 100 scale (0 no effect, 100 complete control), read-out: Plant response rating, Barnyardgrass): 80% | pest or weed control at 500 g/ha ([7]; pre-emergence, Preemergence, 500 g ai/ha, 0 to 100 scale, 0 is no effect, 100 is complete control, read-out: Plant response rating, Barnyardgrass): 100%

CCOCc1nn(-c2ccc(F)cc2)nc1Oc1ccnc(C(F)(F)F)c1 [Compound 163]
Plant response rating, Pigweed [1, 10]: 100 | Pigweed plant response rating [1, 22]: 100 | Plant response rating, Pigweed [1, 12]: 100 | Plant response rating, Pigweed [1, 13]: 100 | Plant response rating, Ryegrass, Italian [2, 18]: 10 | Plant response rating, Ryegrass, Italian [2, 19]: 45 | Plant response rating, Ryegrass, Italian [2, 20]: 65 | Plant response rating, Ryegrass, Italian [2, 21]: 85 | Plant response rating, Wheat [3, 10]: 20 | Wheat plant response rating [3, 22]: 40 | Plant response rating, Wheat [3, 12]: 0 | Plant response rating, Wheat [3, 13]: 0 | Plant response rating, Barnyardgrass (0 to 100 scale, 0 is no effect, 100 is complete control) ([4]; 125 g ai/ha): 15 | Plant response rating, Wheat [5, 19]: 0 | Plant response rating, Wheat [5, 20]: 0 | Plant response rating, Wheat [5, 21]: 0 | Plant response rating, Sedge, Umbrella (0 to 100 scale, 0 is no effect, 100 is complete control) ([6]; 125 g ai/ha): 80 | Plant response rating, Rice (0 to 100 scale, 0 is no effect, 100 is complete control) (rice (Oryza sativa); 125 g ai/ha): 15 | Plant response rating, Barnyardgrass [7, 10]: 70 | Barnyardgrass plant response rating [7, 22]: 100 | Plant response rating, Barnyardgrass [7, 12]: 90 | Plant response rating, Barnyardgrass [7, 13]: 100 | Plant response rating, Soybean (soybean (Glycine max); [18]): 5 | Plant response rating, Soybean (soybean (Glycine max); [19]): 5 | Plant response rating, Soybean (soybean (Glycine max); [20]): 10 | Plant response rating, Soybean (soybean (Glycine max); [21]): 20 | Plant response rating, Pigweed [9, 18]: 95 | Plant response rating, Pigweed [9, 19]: 98 | Plant response rating, Pigweed [9, 20]: 100 | Plant response rating, Pigweed [9, 21]: 100
